From patent publication US6541027B1, “Lactic acid bacteria with anxiolytic properties and uses thereof” (Compagnie Gervais Danone, priority 1999, dated 2003)
Entries after “also recorded” stand apart in the source; their conditions may differ.

Key:
SPF Wistar/AF male rats [1] = assay: Conditioned Defensive Burying test, overall stress score; assay type: in vivo, rat; details: for overall stress score during test 2: test 2 on day 8, 6 hours after administration (diazepam 3 mg/kg p.o. daily, 1 hour before test); for overall stress score: 5 ml/kg p.o. daily for 6 days
Experimental: The anxiolytic effect is evaluated using the Conditioned Defensive Burying model, which was developed from the procedure by J. P. PINEL and D. TREIT (PINEL and TREIT, J. Comp. & Physiol. Psychol., 92, 708-712, 1978; TREIT et al., Pharmacol. Biochem. Behav., 15, 619-626, 1981). This model uses the natural propensity of most rodents to bury themselves from a stressful source of stimulus (TREIT, Pharmacol. Biochem. Behav., 22, 1, 47-52, 1985; MEERT and COLPAERT, Psychopharmacology, 88, 445-450, 1986; CRAFT et al., Pharmacol. Biochem. Behav., 30, 3, 775-780, 1988; TREIT, Pharmacol. Biochem. Behav., 36, 203-205, 1990).
Seventy two SPF Wistar/AF male rats (IFFA-CREDO breeding center, 69—St-Germain sur l'Arbresle, France) weighing 320 to 340 g were used. On reception, the rats were weighed, marked and divided into groups of 4 in type F polycarbonate cages (48×27×20 cm, U.A.R., 91—Epinay-Sur-Orge, France). The animals were stalled in an air-conditioned animal house, at a temperature of 22-24° C. Food (M25 biscuits, Ets […], 77—Provins, France) and drink were available to the rats ad libitum. They were subjected to a light-darkness cycle of 12 hours (light from 24 h to 12 h).
After a week's familiarization with the laboratory conditions, the 72 rats were randomly divided into 6 groups (n=12). The rats in the different groups were all handled in the same way and under the same conditions.
Habituation and the tests were carried out in a transparent cage having the dimensions 44×28×18 cm, whose base is covered with sawdust over a thickness of 5 cm. In the middle of a lateral face, an orifice allows the attachment of an electric probe, 2 cm above the level of the sawdust.
It is a probe made of plexiglas having the dimensions 7×2×0.5 cm, covered with a copper printed circuit in which the gap between the wires is 1 mm, chosen so that one leg of the rat coming to rest on the probe easily makes contact between them, thus allowing the passage of current.
The probe is connected to a manually triggered generator of electric shocks of 0 to 8 mA (OPEN-SYSTEMS, 54—Maxeville, France).
In the faintly illuminated experimental room, a video camera was placed in front of the cage of the setup, at a distance of one meter. The camera is connected to a video recorder and to a control monitor, which are placed in an adjacent room with the electric shock generator.
The experiment was carried out according to a double blind design.
During the 2 days preceding the first test, the rats were transported from the animal house to the experimental room and introduced into the experimental device in order to habituate them to both the handling and to the cage of the device in the absence of the electrode. Each group of 4 rats was placed in the device for 20 minutes. The sawdust is changed, leveled to a uniform height of 5 cm, before the period of habituation of each of the groups.
The electric probe is inserted into the cage before the beginning of the first test. Each rat is placed in the experimental cage on the side opposite the probe.
During the first test (test 1), a single electric shock, of low intensity (2 mA) is delivered to the animal when it places a hind leg for the first time on the probe.
Following the electric shock, the behavior of each rat is recorded for 5 minutes. […] The probe is cleaned after each rat and the sawdust is changed and leveled to a uniform height of 5 cm before the test session for each cage of rats.
The products L, 3ST, 3S and 3S+P were orally administered daily at the same times, at the doses of 5 ml/kg by means of syringes provided with intragastric forced-feeding probes (HARVARD APPARATUS, 91—Les Ulis, France). The burying tests (test 1 on day 6 and test 2 on day 8) were carried out 6 hours after the administration of the products.
The positive control is diazepam (3 mg/kg), which was suspended in an aqueous solution of methyl cellulose at 1% and was orally administered daily, for the same period. […]

SPF Wistar/AF male rats [2] = assay: Sedative effect (locomotive and exploratory activity) during the Conditioned Defensive Burying test; assay type: in vivo, rat; details: Example 2; test 1 on day 6; 5 ml/kg p.o. daily (diazepam 3 mg/kg p.o.)
Experimental: The tests were carried out according to the protocol described in example 2 above, on one hundred and fifty eight SPF Wistar/AF males (IFFA-CREDO breeding center, 69—St Germain sur Arbresles, France) weighing 260 to 280 g. After a week's familiarization with the laboratory conditions, the rats were randomly divided into 13 treatment groups. The rats of the various groups were handled in the same manner and under the same conditions.
All the products were orally administered daily for 6 days at the same times at the doses of 5 ml/kg using syringes equipped with intragastric forced-feeding probes (HARVARD APPARATUS, 91—Les Ulis, France). On the day for the test, they were administered 6 hours before the burying test.
number of […]: the rat adopts the vertical position while resting on its hind legs;
number of passes from one side of the cage to another.

For `CN1C(=O)CN=C(c2ccccc2)c2cc(Cl)ccc21` [diazepam], the “overall stress score during test 1” value (SPF Wistar/AF male rats [1]; Example 2, 5 ml/kg p.o. daily, test 1 on day 6, 6 hours after administration (diazepam 3 mg/kg p.o. daily, 1 hour before test), vs. control product L) was “tends to reduce the overall stress score; also recorded: showed only a trend to reduce the overall stress score”, the “overall stress score during test 2” value (SPF Wistar/AF male rats [1]; Example 2, 5 ml/kg p.o. daily, vs. control product L) was “not significantly different from the product L” and the “overall stress score during test 2” value (SPF Wistar/AF male rats [1]; Example 2, 5 ml/kg p.o. daily, vs. control product L, listed as Diazepam) was “no effect which is statistically different from that of the control”. The “phenomenon of tolerance (habituation) between test 1 and test 2” value (SPF Wistar/AF male rats [1]; Example 2, daily oral administration, day 6 vs. day 8) was “phenomenon of tolerance observed”, the overall stress score (SPF Wistar/AF male rats [1]; Example 3, last dose 6 hours before test (diazepam 1-3 mg/kg p.o. over 6 days, 1 hour before test), vs. control product L) was “significantly lower overall stress scores; also recorded: significant antistress activity” and the overall stress score (SPF Wistar/AF male rats [1]; Example 5, test 1 hour after last dose (diazepam 1-3 mg/kg p.o., 1 hour before test), vs. control product L) was “significantly lower than that of the control product L”. The “sedative effect during test 1” value (SPF Wistar/AF male rats [2]) was “sedative effect”.
